{
  "source": "patent US8198302B2",
  "about": "(OXiGENE, Inc., priority 2004, dated 2012)",
  "key": {"[1]": {"test_system": "tumor cells", "experiment": "Tumor cell cytotoxicity, MTT assay", "type": "cell-based", "method": "Exponentially growing tumor cells were treated with the following compounds for 24 hours. Insoluble compounds were formulated in a small amount (0.3%) of DMSO for biological evaluation. Cell viability was determined by the calorimetric MTT assay using 3(4,5-dimethylthiazol-2-yl)-2,5-diphenyl-2H-tetrazolium bromide according to well-established procedures (see Berridge, et al. (1996) for a general protocol of this type of assay)."}, "[2]": {"test_system": "tumor xenografts", "experiment": "Evaluation of tumor xenografts treated with CA1P", "type": "in vivo", "description": "It is expected that in the highly oxygenated regions of the tumor, such as the tumor rim, that are resistant to tumor blood shutdown, CA1 is readily oxidized to its corresponding quinone, and is able to render a single agent response due to this second mechanism of action."}, "[3]": {"test_system": "murine adenocarcinoma CaNT", "experiment": "Tumor growth control in CaNT murine tumor model", "type": "in vivo, mice", "conditions": "single doses of 100, 200, and 400 mg/kg i.p., FIG. 5", "method": "The murine adenocarcinoma CaNT was grown subcutaneously on the back of 12- to 16-week old CBA/Gy fTO mice. Tumors were initiated by the injection of 0.05 ml of a crude tumor cell suspension prepared from a donor mouse. Animals were selected for treatment after 3 or 4 weeks, when tumors had reached a geometric mean diameter of 5 to 6.5 mm. CA1P and CA4P were dissolved in 0.9% saline at various concentrations and injected intraperitoneally into tumor bearing mice. Each treatment group consisted of between five and nine mice. A control treatment group was injected with 0.9% saline."}, "[4]": {"test_system": "murine adenocarcinoma CaNT", "experiment": "Functional vascular volume of tumor vessels (Hoechst 333342)", "type": "in vivo, mice", "conditions": "1 mg/kg i.p. (lowest dose), 24 hours", "method": "The effect of CA1P on tumor blood flow was evaluated by quantification of the functional volume of tumor vessels in treated murine tumors using a procedure previously described in detail and incorporated by reference herein (Smith K A, Br. J. Cancer, 57:247-253, 1988). The murine adenocarcinoma CaNT was grown subcutaneously on the back of 12- to 16-week old CBA/Gy fTO mice. Tumors were initiated by the injection of 0.05 ml of a crude tumor cell suspension prepared from a donor mouse. Animals were selected for treatment after 3 or 4 weeks, when tumors had reached a geometric mean diameter of 5 to 6.5 mm. CA1P and CA4P were dissolved in 0.9% saline at various concentrations and injected intraperitoneally into tumor bearing mice. Each treatment group consisted of between five and nine mice. A control treatment group was injected with 0.9% saline. At 24 hours post-injection, each mouse was injected intravenously with a 10 mg/kg dose of the fluorescent DNA-binding dye Hoechst 333342 and sacrificed 1 minute later. Tumors were immediately excised and bisected. Frozen tumor sections were cut at three levels and viewed under UV excitation where the fluorescent staining of perivascular cells identified perfused vessels. Vascular volumes were quantified based on a random point scoring system previously described and incorporated by reference herein (Chalkley H W, J. Natl Cancer Institute, 4: 47-53, 1943). All estimates were based on counting 100 fields from sections cut at each of the 3 different levels and the calculated vascular volumes were expressed as a percentage of the mean value for control tumors."}, "[5]": {"test_system": "MHEC-5T tumors", "experiment": "Reduction in tumor blood flow / functional tumor vessels (fluorescent beads)", "type": "in vivo, mice", "conditions": "for reduction in tumor blood flow: 24 hr post-drug", "method": "(§1) Catechols were dissolved in 50% DMSO (2 mg/kg) prior to intravenous (iv) administration (i.v.) to tumor-bearing mice. MHEC-5T tumors were established by subcutaneous injection of 0.5×10^6 cultured MHEC5-T cells (German Collection of Microorganisms and Cell Culture, Braunschweig, Germany) into the right flank of Fox Chase CB-17 severe combined immunodeficient (SCID) mice. Tumor grafts grew palpable within one week and reached the limited size (15×15 mm) within 10 days. Tumor bearing mice were injected intraperitoneally with saline control or various dosages of CA1P or CA4P after the transplanted tumor reached a size of 300 mm^3 (a size without development of necrosis). Twenty-four hours later they were injected with 0.25 ml of fluorescent FluoSphere beads (0.1 μm beads conjugated with blue fluorescent tag (F-8789, Molecular Probes, Eugene, Oreg.) and diluted 1:6 in physiological saline) in the tail vein, and sacrificed after 3 minutes. Tumors were then excised for cryosections. Cryosections of 8 μm thickness were directly examined under a fluorescent microscope. Functional blood vessels were indicated by blue fluorescence from injected microbeads. For quantification, three sections from three tumors treated in each group were examined and in each section, more than 70% of the area was automatically recorded with a microscopic digital camera at ×10 magnification. A computer program named Stage Pro (Media Cybernetics, Md.) was used to control the picture recording. Image analysis was performed with Image Plus software (Media Cybernetics, Md.). The results were expressed as vessel area per mm^2 in percentage of the control in Table 2.\nas §1, with “The effect of CA1P on tumor blood flow was evaluated by quantifying the number of functional tumor vessels” for “Catechols were dissolved”, “treated murine tumors.” for “50% DMSO (2 mg/kg) prior to intravenous (iv) administration (i.v.) to tumor-bearing mice.”, “as in Example 4c.” for “by subcutaneous injection of 0.5×10^6 cultured MHEC5-T cells (German Collection of Microorganisms and Cell Culture, Braunschweig, Germany) into the right flank of Fox Chase CB-17 severe combined immunodeficient (SCID) mice. Tumor grafts grew palpable within one week and reached the limited size (15×15 mm) within 10 days.”, “MD)” for “Md.)”, “MD).” for “Md.).”, “control.” for “control in Table 2.”"}, "[6]": {"experiment": "Reaction of ortho-quinone with glutathione and ascorbate (stopped-flow, HPLC)", "type": "physicochemical", "conditions": "stopped-flow rapid mixing, FIG. 1A", "description": "The formation of each quinone was examined by reacting its corresponding catechol with excess FeCl3/H2SO4 and monitoring the reaction by HPLC. The identity of each quinone was confirmed by HPLC-MS (mass 330, λmax 312, 422 nm)."}, "[7]": {"experiment": "Stability of quinone product (TLC and NMR)", "type": "physicochemical", "conditions": "in D7 DMF, following the initiation of the reaction", "method": "To a solution of Combretastatin A-4 (0.032 g, 0.100 mmol; OXiGENE, Inc.) was added Iodoxybenzoic acid (0.028 g, 0.099 mmol) in D7 DMF (4 ml) with stirring by vortex for ½ hr. Completion of the reaction was indicated by the disappearance of the initial yellowish slurry and the appearance of a clear solution of a deep red color. ^1H-NMR was performed immediately as the quinone product was highly unstable and degraded within a ½ hr following the initiation of the reaction, as indicated by TLC and NMR."}, "[8]": {"experiment": "Recovery of CA1 from plasma", "type": "in vitro ADME", "conditions": "in the presence of ascorbic acid in the extraction mixture", "description": "In blood, the ortho catechol CA1 is susceptible to oxidation. […] The recovery of CA1 was resolved by incorporation of ascorbic acid as an antioxidant in the extraction mixture. In the presence of ascorbic acid the recovery of CA1 from plasma was increased to approximately 90%."}},
  "data": [
    {"smiles": "COc1cc(/C=C\\c2ccc(OC)c(OP(=O)(O)O)c2OP(=O)(O)O)cc(OC)c1OC", "note": "[CA1P, Combretastatin A-1 diphosphate]", "values": [
      {"measurement": "antiproliferative activity against tumor cells in vitro", "setting": "[1]; in comparison to CA4P", "result": "inferior"},
      {"measurement": "tumor cell destruction by location", "setting": "[2]", "result": "not only destroyed centrally located tumor cells but also cells located at the periphery of the tumor"},
      {"measurement": "effect on tumor growth", "setting": "[3]", "result": "significant tumor growth delay"},
      {"measurement": "reduction of the percentage of functional vasculature in the tumor", "setting": "[4]", "result": "over 50%"},
      {"measurement": "ED50 (vascular effect)", "setting": "[5]; functional vessel number per mm^2, i.p., 24 hr, MHEC-5T tumors", "result": 3, "unit": "mg/kg"},
      {"measurement": "blood flow in the peripheral region of tumors", "setting": "[5]; periphery = rim of width 10% of the tumor diameter", "result": "reduced the blood flow in the peripheral region as well"},
      {"measurement": "reduction in tumor blood flow", "setting": "[5]; single i.p. injection 3 mg/kg, MHEC-5T tumors", "result": 50, "unit": "%"},
      {"measurement": "reduction in tumor blood flow", "setting": "[5]; single i.p. injection 6 mg/kg, MHEC-5T tumors", "result": 74, "unit": "%"},
      {"measurement": "reduction in tumor blood flow", "setting": "[5]; single i.p. injection 50 mg/kg, MHEC-5T tumors", "result": 90, "unit": "%"},
      {"measurement": "blood flow in the central region of tumors", "setting": "[5]; spatial distribution of blood vessel shutdown", "result": "blood flow reduction"}
    ]},
    {"smiles": "COC1=CC=C(/C=C\\c2cc(OC)c(OC)c(OC)c2)C(=O)C1=O", "note": "[CA-1 Ortho-Quinone]", "values": [
      {"measurement": "reaction with glutathione and ascorbate", "setting": "[6]", "result": "react rapidly"},
      {"measurement": "time to degradation of quinone product", "setting": "[7]", "result": "½"}
    ]},
    {"smiles": "COc1ccc(/C=C\\c2cc(OC)c(OC)c(OC)c2)c(O)c1O", "note": "[CA1, Combretastatin A-1]", "values": [
      {"measurement": "recovery", "setting": "[8]", "result": "~90", "unit": "%"},
      {"measurement": "IC50", "setting": "[1]; tumor cells treated for 24 hours", "result": 0.0046, "unit": "µM"},
      {"measurement": "Blood Flow at 10 mg/kg (% vessel area of control)", "setting": "[5]; 10 mg/kg, MHEC-5T tumor-bearing SCID mice, 24 hours after dosing", "result": "30 % vessel area of control"}
    ]}
  ]
}
